Consider eight molecules from patent US20230203029A1 (priority 2020, published 2023).

Bounds are passed on as bounds.

The target of experiment [1] is T1, human MERTK cytoplasmic domain (Homo sapiens, UniProt Q12866).
T1 construct: human MERTK cytoplasmic domain (Carna Biosciences 08-108); purchased Carna Biosciences 08-108
The experiment in a line: biochemical. Conditions: 30 uM ATP; read-out: Assay 1a Mer IC50 30 uM ATP. The procedure: Assay 1a—MERTK HTRF KinEASE-TK Assay
The enzymatic reaction was carried out for 30 min at room temperature. 10 μL TK Antibody-Cryptate/Streptavidin-XL665 (Cisbio 610SAXLG) was then added for 60 min, including EDTA containing detection buffer (Cisbio 62SDBRDF) to stop the reaction.

The target in experiment [2] is T2, human AXL cytoplasmic domain (Homo sapiens, UniProt P30530).
T2 construct: human AXL cytoplasmic domain (Thermo Fisher A31515); purchased Thermo Fisher A31515
T2 sequence (P30530 473-894 limits assumed): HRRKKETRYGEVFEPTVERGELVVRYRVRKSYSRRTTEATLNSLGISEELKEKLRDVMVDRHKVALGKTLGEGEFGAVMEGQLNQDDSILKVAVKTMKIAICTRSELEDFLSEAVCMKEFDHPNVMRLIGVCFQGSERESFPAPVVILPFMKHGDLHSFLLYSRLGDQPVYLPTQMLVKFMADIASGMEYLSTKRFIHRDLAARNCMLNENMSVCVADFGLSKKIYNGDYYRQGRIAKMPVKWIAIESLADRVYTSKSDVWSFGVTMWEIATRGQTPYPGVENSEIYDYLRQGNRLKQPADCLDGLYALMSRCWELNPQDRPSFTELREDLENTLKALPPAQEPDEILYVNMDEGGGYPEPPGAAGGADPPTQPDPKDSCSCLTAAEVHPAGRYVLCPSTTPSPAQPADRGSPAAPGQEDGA
The experiment in a line: Assay 1b AXL HTRF KinEASE-TK assay. The class given is biochemical. The procedure:
Assay 1b—AXL HTRF KinEASE-TK Assay
Compound inhibition of human AXL cytoplasmic domain (Thermo Fisher A31515) enzymatic activity was tested via the HTRF KinEASE-tyrosine kinase (TK) kit (Cisbio 62TK0PEC). Experiments were performed in 20 μl enzymatic buffer (Cisbio 62EZBFDD) supplemented with 5 mM MgCl2, 1 mM MnCl2, 1 mM DTT, 50 nM SEB (Cisbio, 61SEBALB), with 5 nM of AXL and the test compounds of interest. […] The enzymatic reaction was carried out for 30 min at room temperature. 10 μL TK Antibody-Cryptate/Streptavidin-XL665 (Cisbio 610SAXLG) was then added for 60 min, including EDTA containing detection buffer (Cisbio 62SDBRDF) to stop the reaction. The plate was read on a BMG Pherastar FSX using a HTRF 337/620/665 optical module to excite the terbium donor at 337 nm, and record donor emission at 620 nm and acceptor fluorophore emission at 665 nm. From this the FRET ratio (acceptor 665 nm/donor 620 nm) for each data point was calculated. […] Competition curves were then fit to a 4 parameter logistic equation including a variable slope factor to determine the IC50 (compound concentration that inhibits 50% of AXL activity).

Experiment [3] deals with T3, Ba/F3 Pro B-cell line expressing TEL-human MERTK fusion domain (Homo sapiens, UniProt Q12866).
T3 sequence (Q12866 587-858 limits assumed): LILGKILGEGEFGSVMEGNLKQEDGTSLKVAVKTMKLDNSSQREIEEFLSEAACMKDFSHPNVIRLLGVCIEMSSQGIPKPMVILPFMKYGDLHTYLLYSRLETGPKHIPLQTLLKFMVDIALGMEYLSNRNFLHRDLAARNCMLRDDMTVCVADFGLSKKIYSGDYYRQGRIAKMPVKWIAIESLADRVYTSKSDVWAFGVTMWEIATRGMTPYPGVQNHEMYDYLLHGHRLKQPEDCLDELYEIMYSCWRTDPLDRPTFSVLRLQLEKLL
It counts as cell-based. As to conditions: cell survival, 48 h, CellTiter-Glo; read-out: TEL-MERTK Ba/F3 IC50. The procedure:
(§1) Assay 5—Ba/F3 Cell Survival Assays.
(§2) The inhibitory potencies of compounds were assessed in a Ba/F3 cell survival assay, using the Ba/F3 Pro B-cell line, recombinantly expressing a BCR-human AXL kinase domain fusion protein (pACD320/AXL, Advanced Cellular Dynamics Inc), TEL-human MERTK fusion domain (pACD1000/MERTK, Advanced Cellular Dynamics Inc), TEL-human Tyro3 fusion domain (pACD1000/TYRO3, Advanced Cellular Dynamics Inc), or control TEL-none (ACD320, Advanced Cellular Dynamics Inc) BRC-none constructs (ACD1000, Advanced Cellular Dynamics Inc). 10 ng/mL recombinant murine IL3 (R&D, 403-ML-010) was included in the media when propagating negative control TEL-none or BCR-none lines only. […] The final assay DMSO concentration was 0.25%. Compound incubations were conducted for 48 h at 37° C./5% CO2, after which cell plate was equilibrated at room temperature for 20 minutes prior to assessing viability. 15 μl of Promega CellTiter-Glo reagent (G7572) was added to each well for 2 min on an orbital shaker to induce cell lysis.
(§3) The plate was then equilibrated for 5 min at room temperature and luminescence read on a BMG Pherastar FSX using the LUM plus optic module. […] Competition curves were then fit to a 4 parameter logistic equation including a variable slope factor to determine the IC50 (compound concentration causing a half-maximal inhibition of cell survival).

Experiment [4] has as its target T4, Ba/F3 Pro B-cell line expressing BCR-human AXL kinase domain fusion protein (Homo sapiens, UniProt P30530).
T4 construct: P11274 (Breakpoint cluster region protein)
T4 sequence (P30530 536-807 limits assumed): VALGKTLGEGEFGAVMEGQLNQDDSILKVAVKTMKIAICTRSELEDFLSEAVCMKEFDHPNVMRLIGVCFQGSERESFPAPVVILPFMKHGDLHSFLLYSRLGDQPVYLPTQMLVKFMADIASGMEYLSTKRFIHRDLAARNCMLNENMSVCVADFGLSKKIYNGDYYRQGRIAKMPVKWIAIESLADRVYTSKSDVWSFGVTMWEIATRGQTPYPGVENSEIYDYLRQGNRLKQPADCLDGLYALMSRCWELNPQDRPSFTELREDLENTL
Kind of experiment: Assay 5 Ba/F3 cell survival assay, BCR-Axl. The class given is cell-based. As to conditions: read-out: BCR-Axl Ba/F3 IC50, 48 h, CellTiter-Glo. The protocol:
as §1, §2, §3
For orientation: In ATP-based viability assays light output follows the ATP content of the culture.

Experiment [5] has as its target T5, Ba/F3 Pro B-cell line expressing TEL-human Tyro3 fusion domain (Homo sapiens, UniProt Q06418).
T5 sequence (Q06418 518-790 limits assumed): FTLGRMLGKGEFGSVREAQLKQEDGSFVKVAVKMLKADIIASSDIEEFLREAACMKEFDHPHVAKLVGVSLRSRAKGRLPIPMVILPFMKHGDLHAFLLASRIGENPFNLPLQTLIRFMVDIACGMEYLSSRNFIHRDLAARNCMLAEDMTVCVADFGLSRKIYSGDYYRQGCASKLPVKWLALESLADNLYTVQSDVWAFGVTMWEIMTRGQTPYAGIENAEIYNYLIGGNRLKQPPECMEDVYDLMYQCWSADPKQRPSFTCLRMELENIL
The class given is cell-based. As to conditions: cell survival, 48 h, CellTiter-Glo. The protocol: as §1
as §2, with “only. Cells were maintained in RMPI 1640 (Corning 15-040-CV) culture media containing 10% heat inactivated semi-synthetic FBS (RMBIO FGR-BBT), 2 mM L-Glutamine (Sigma, G7513), 100 IU/mL Penicillin-[…] Streptomycin (Sigma, P4333), and 500 ng/mL Puromycin (Sigma, P8833). Experiments were performed in 50 μl growth media, including the test compounds of interest, and dispensing 5000 cells/well in logarithmic-phase growth into a 384 well white Optiplate (Perkin Elmer 6007299).” for “only.”
The plate was then equilibrated for 5 min at room temperature and luminescence read on a BMG Pherastar FSX using the LUM plus optic module. Data were normalised to measurements in the absence of competing compound (0% inhibition). Competition curves were then fit to a 4 parameter logistic equation including a variable slope factor to determine the IC50 (compound concentration causing a half-maximal inhibition of cell survival).

T1 sequence (Q12866 527-999): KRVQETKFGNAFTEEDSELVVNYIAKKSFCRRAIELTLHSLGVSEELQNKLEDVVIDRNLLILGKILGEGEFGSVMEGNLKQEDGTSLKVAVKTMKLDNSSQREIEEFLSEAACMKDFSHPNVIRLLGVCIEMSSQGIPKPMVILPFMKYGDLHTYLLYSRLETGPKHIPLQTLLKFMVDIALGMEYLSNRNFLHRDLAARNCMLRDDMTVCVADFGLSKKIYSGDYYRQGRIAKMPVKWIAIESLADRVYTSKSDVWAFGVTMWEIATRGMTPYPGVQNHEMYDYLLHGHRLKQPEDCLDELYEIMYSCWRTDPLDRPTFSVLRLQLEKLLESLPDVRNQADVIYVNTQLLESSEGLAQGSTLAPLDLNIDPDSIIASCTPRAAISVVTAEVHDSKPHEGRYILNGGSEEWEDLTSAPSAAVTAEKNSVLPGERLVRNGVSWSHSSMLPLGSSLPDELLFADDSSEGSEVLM

Regarding `CC(C)n1cc(C(=O)Nc2ccc(Oc3ccnc4cnc(C(=O)NC5CCN(C)CC5)cc34)cc2)c(=O)n(-c2cc(F)cc(F)c2)c1=O` [Example 9.1, 4-[4-[[3-(3,5-difluorophenyl)-1-isopropyl-2,4-dioxo-pyrimidine-5-carbonyl]amino]phenoxy]-N-(1-methyl-4-piperidyl)-1,7-naphthyridine-6-carboxamide], the IC50 in experiment [1] is 12 nM; in experiment [2], 13 nM; in experiment [3], above 2500 nM; in experiment [4], 25 nM; in experiment [5], above 2500 nM.

`O=C(Nc1ccc(Oc2ccnc3cnc(N4CCNCC4)cc23)cn1)c1cccn(-c2ccc(F)cc2)c1=O` [Example 10, 1-(4-fluorophenyl)-2-oxo-N-[5-[(6-piperazin-1-yl-1,7-naphthyridin-4-yl)oxy]-2-pyridyl]pyridine-3-carboxamide]: the IC50 in experiment [1] is 5 nM; in experiment [2], 29 nM; in experiment [3], 24 nM; in experiment [4] it was 28 nM; in experiment [5], 148 nM.

On to `O=C(Nc1ccc(Oc2ccnc3cnc(N4CCN(C5COC5)CC4)cc23)cn1)c1cccn(-c2ccc(F)cc2)c1=O` [Example 10.2, 1-(4-fluorophenyl)-N-[5-[[6-[4-(oxetan-3-yl)piperazin-1-yl]-1,7-naphthyridin-4-yl]oxy]-2-pyridyl]-2-oxo-pyridine-3-carboxamide], for which the IC50 in experiment [1] came out at 2 nM; in experiment [2] it was 20 nM; in experiment [3] it was 17 nM; in experiment [4], 14 nM; in experiment [5], 394 nM.

In the case of `CN1CCC(NC(=O)c2cc3c(Oc4ccc(NC(=O)c5cccn(-c6ccc(F)cc6)c5=O)nc4)ccnc3cn2)CC1` [Example 11, 4-[[6-[[1-(4-fluorophenyl)-2-oxo-pyridine-3-carbonyl]amino]-3-pyridyl]oxy]-N-(1-methyl-4-piperidyl)-1,7-naphthyridine-6-carboxamide], the IC50 in experiment [1] is 4 nM; in experiment [2], 77 nM; in experiment [3] it was 52 nM; in experiment [4] it was 32 nM; in experiment [5], 251 nM.

With `CC(C)n1cc(C(=O)Nc2ccc(Oc3ccnc4cnc(N5CCNCC5)cc34)cc2)c(=O)n(-c2ccc(F)cc2)c1=O` [Example 12.5, 3-(4-fluorophenyl)-1-isopropyl-2,4-dioxo-N-[4-[(6-piperazin-1-yl-1,7-naphthyridin-4-yl)oxy]phenyl]pyrimidine-5-carboxamide], the IC50 turned out to be 3 nM in experiment [1]; 5 nM in experiment [2]; 38 nM in experiment [3]; 5 nM in experiment [4]; 428 nM in experiment [5].

Turning to `O=C(Nc1ccc(Oc2ccnc3cnc(N4CCNCC4)cc23)cc1)c1cccc(-c2ccc(F)cc2)[n+]1[O-]` [Example 12.6, 6-(4-fluorophenyl)-1-oxido-N-[4-[(6-piperazin-1-yl-1,7-naphthyridin-4-yl)oxy]phenyl]pyridin-1-ium-2-carboxamide], the IC50 worked out at 3 nM in experiment [1]; 31 nM in experiment [2]; 16 nM in experiment [3]; 6 nM in experiment [4]; 110 nM in experiment [5].

As to `CN1CCC(c2cc3c(Oc4ccc(NC(=O)c5cccn(-c6ccc(F)cc6)c5=O)nc4)ccnc3cn2)CC1` [Example 16, 1-(4-Fluorophenyl)-N-[5-[[6-(1-methyl-4-piperidyl)-1,7-naphthyridin-4-yl]oxy]-2-pyridyl]-2-oxo-pyridine-3-carboxamide], the IC50 in experiment [1] amounted to 19 nM; in experiment [2] it was 264 nM; in experiment [3], 14 nM; in experiment [4] it was 22 nM; in experiment [5], 931 nM.

Consider `CC(C)(C)OC(=O)N1CCC(c2cc3c(Oc4ccc(NC(=O)c5cccn(-c6ccc(F)cc6)c5=O)nc4)ccnc3cn2)C1` (stereo not shown) [Example 16.1, tert-butyl 3-[4-[[6-[[1-(4-fluorophenyl)-2-oxo-pyridine-3-carbonyl]amino]-3-pyridyl]oxy]-1,7-naphthyridin-6-yl]pyrrolidine-1-carboxylate], for which the IC50 in experiment [1] is 4 nM; in experiment [2], 27 nM; in experiment [3] it was 70 nM; in experiment [4], 76 nM; in experiment [5], 1930 nM.
